Assay results taken from US20020037931A1, “Substituted nitrated catechols, their use in the treatment of some central and peripheral nervous system disorders and pharmaceutical compositions containing them” (priority 2000, published 2002).

What was measured:
COMT [1] = assay: Ex vivo brain COMT activity after administration by gastric tube; type: in vivo, rat; conditions: for COMT activity (% of control), Brain: rat brain homogenate; for access to the brain / activity in the periphery (in words): conclusion from ex vivo COMT inhibition
COMT [2] = target: T1, COMT (Homo sapiens, UniProt P21964); assay: COMT activity in intact SK-N-SH cell monolayers; type: cell-based; conditions: SK-N-SH cells; test compound 100 nM; means±SEM, n=4-8
T1 construct: COMT activity was evaluated in cell monolayers by the ability to methylate adrenaline; host or cells: SK-N-SH cells
T1 sequence (P21964 1-271): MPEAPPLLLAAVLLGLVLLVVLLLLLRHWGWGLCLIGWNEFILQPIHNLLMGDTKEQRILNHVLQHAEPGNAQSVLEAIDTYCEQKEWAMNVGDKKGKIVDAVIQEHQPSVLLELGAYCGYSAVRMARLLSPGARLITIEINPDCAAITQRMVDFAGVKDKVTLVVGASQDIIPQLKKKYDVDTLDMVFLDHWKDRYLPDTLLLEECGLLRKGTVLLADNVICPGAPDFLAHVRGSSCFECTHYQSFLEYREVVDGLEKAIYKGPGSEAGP

COMT [3] = assay: COMT activity (methylation of adrenaline to metanephrine) in rat liver homogenates; type: biochemical; conditions: rat liver homogenate; test compound 3 μM; means±SEM, n=4-8
COMT [4] = assay: COMT activity (methylation of adrenaline to metanephrine) in rat brain homogenates; type: biochemical; conditions: rat brain homogenate; test compound 100 nM; means±SEM, n=4-8
COMT [5] = assay: Ex vivo liver COMT activity after administration by gastric tube; type: in vivo; conditions: rat liver homogenate
[6] = 0.5 h after administration by gastric tube
[7] = 1 h after administration by gastric tube
[8] = 3 h after administration by gastric tube
[9] = 6 h after administration by gastric tube
[10] = 9 h after administration by gastric tube

| SMILES | COMT activity (% of control), Brain (COMT [1]; [6]) | COMT activity (% of control), Brain (COMT [1]; [7]) | COMT activity (% of control), Brain (COMT [1]; [8]) | COMT activity (% of control), Brain (COMT [1]; [9]) | COMT activity (% of control), Brain (COMT [1]; [10]) | inhibition of brain COMT (in words) (COMT [1]; after oral administration, rat) | inhibitory profile brain COMT versus liver COMT (in words) (COMT [1]; after oral administration, rat, brain compared with liver) | access to the brain / activity in the periphery (in words) (COMT [1]; rat) | COMT activity, SK-N-SH (% of control) (COMT [2]) | COMT activity, Liver (% of control) (COMT [3]) | COMT activity, Brain (% of control) (COMT [4]) | COMT activity (% of control), Liver (COMT [5]; [6]) | COMT activity (% of control), Liver (COMT [5]; [7]) | COMT activity (% of control), Liver (COMT [5]; [8]) | COMT activity (% of control), Liver (COMT [5]; [9]) | COMT activity (% of control), Liver (COMT [5]; [10]) |
| --- | --- | --- | --- | --- | --- | --- | --- | --- | --- | --- | --- | --- | --- | --- | --- | --- |
| CCCC(=O)Oc1ccc(C(=O)c2ccccc2)c([N+](=O)[O-])c1OC(=O)CCC [Compound 20, Butyric Acid, 3-Benzoyl-6-butyryloxy-2-nitro-phenyl Ester] | 25.8 ± 4.3 % of control | 31.4 ± 3.0 % of control | 49.4 ± 5.3 % of control | 81.3 ± 3.7 % of control | 72.8 % of control | potent inhibitors of brain COMT | much more potent upon brain COMT than liver COMT | enhanced access to the brain and limited activity in the periphery | 0 ± 0 % of control | 0.6 ± 0.0 % of control | 3 ± 0 % of control | 57.9 ± 4.7 % of control | 64.4 ± 5.0 % of control | 66.5 ± 7.8 % of control | 94.5 ± 0.3 % of control | 110.1 % of control |
| O=C(Cc1ccccc1)c1ccc(O)c(O)c1[N+](=O)[O-] [Compound 24, 1-(3,4-Dihydroxy-2-nitro-phenyl)-2-phenyl ethanone] | 18.7 ± 1.6 % of control | 18.7 ± 0.6 % of control | 37.0 ± 5.9 % of control | 64.8 ± 3.7 % of control | 98.4 % of control | potent inhibitors of brain COMT |  | limited access to the brain | 24 ± 1 % of control | 0.7 ± 0.0 % of control | 7 ± 1 % of control | 6.2 ± 0.8 % of control | 8.4 ± 1.6 % of control | 61.9 ± 10.8 % of control | 91.6 ± 8.8 % of control | 125.9 % of control |
